Results on 18 compounds are retold here after patent publication US11987586B1 (TAKEDA PHARMACEUTICAL COMPANY LIMITED, priority 2022, dated 2024).

SMILES strings stand for the structures.

Test [1] deals with T1, human OX2 receptor (Homo sapiens, UniProt O43614).
T1 construct: expressed in transfected cells
T1 sequence (O43614 1-444): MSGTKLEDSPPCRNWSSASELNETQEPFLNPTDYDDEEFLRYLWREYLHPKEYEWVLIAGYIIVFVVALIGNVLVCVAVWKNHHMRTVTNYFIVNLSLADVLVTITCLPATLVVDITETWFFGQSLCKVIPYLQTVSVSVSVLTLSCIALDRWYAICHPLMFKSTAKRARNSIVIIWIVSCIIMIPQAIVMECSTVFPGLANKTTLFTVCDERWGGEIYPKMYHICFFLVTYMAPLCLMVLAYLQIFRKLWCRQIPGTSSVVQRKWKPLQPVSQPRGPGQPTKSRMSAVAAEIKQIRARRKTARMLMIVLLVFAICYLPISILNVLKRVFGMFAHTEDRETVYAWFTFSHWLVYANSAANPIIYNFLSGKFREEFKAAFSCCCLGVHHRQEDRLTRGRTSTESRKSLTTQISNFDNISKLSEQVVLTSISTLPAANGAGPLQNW
Put plainly: Measurement of orexin type 2 receptor agonist activity (calcium fluorescence, Fluo-4, FDSS). In kind it is cell-based. As to conditions: 3 uM test compound; CHO cells expressing human OX2 receptor; DMSO = 0%, 10 nM orexin A (human) = 100%. The method, boiled down: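 Agonist activity (%) was normalised to the response to 10 nM final human orexin A (100%) and to the DMSO vehicle (0%). The response was measured as the Fluo-4 calcium signal, read kinetically over 1 min 40 s after compound addition to Fluo-4/probenecid-loaded stable CHO-K1 clones expressing human OX2 (aa 1-444).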

Test [2] relates to cynomolgus monkeys. As to the kind of experiment: Evaluation of wake-promoting effects in cynomolgus monkeys (EEG, EMG, locomotor activity). The test is classed as in vivo, cynomolgus monkey. As to conditions: Macaca fascicularis, po, p.o., at zeitgeber time 12, 4 hours after administration, male cynomolgus monkeys, read-out: Wakefulness time (% of vehicle treatment) (Mean, n = 2-4). The procedure: The wake-promoting effects were evaluated by measuring the electroencephalogram (EEG), electromyogram (EMG) and locomotor activity in cynomolgus monkeys. Under isoflurane anesthesia (0.5-5%, Pfizer Japan Inc., Tokyo, Japan), male cynomolgus monkeys (2-3 years old, Hamri Co., Ltd., Ibaraki, Japan) were surgically implanted with radio-telemetry transmitters (L03-F3, Data Sciences International Inc., MN, USA). The two EEG electrodes were stereotaxically positioned at the parietal area and secured to the cranium with stainless-steel screws in contact with the dura. Bilateral EMG electrodes were implanted into the back cervical muscles. After at least a 1-month recovery period in home cages, the monkeys were habituated to the recording chamber (an acrylic cage 60W×55D×75H (cm)) located in a soundproof and electrically shielded room by the time animals sleep sufficiently in the experimental room. Cortical EEG, EMG and locomotor activity were recorded using the telemetry system (PhysioTel Digital telemetry platform, Data Sciences International Inc.). The signals were semi-automatically scored in 20-second epochs by a sleep scoring system (SleepSign, Kissei Comtec Co., Ltd., Nagano, Japan).
Test compound (1 or 3 mg/kg) suspended in 0.5% methylcellulose aqueous solution or vehicle (i.e., 0.5% methylcellulose aqueous solution) was administered orally (p.o.) to monkeys at zeitgeber time 12 in a volume of 5 mL/kg body weight with a pretest-posttest design (n=2-4), and then EEG, EMG and locomotor activity were recorded for 4 hours after administration. The time spent in wakefulness for 4 hours after administration (% of vehicle treatment) was calculated by using SleepSign.

Regarding `CCS(=O)(=O)N[C@H]1C[C@H]2CN(c3noc4cccc(-c5c(F)cccc5F)c34)C(=O)N2C1` [Example 1, N-{(6S,7aS)-2-[4-(2,6-Difluorophenyl)-1,2-benzoxazol-3-yl]-3-oxohexahydro-1H-pyrrolo[1,2-c]imidazol-6-yl}ethanesulfonamide], the “OX2R agonist activity (3 uM, %)” value in test [1] came out at 104%. Also, in test [2] (3 mg/kg), the response vs control in vivo at 3 mg/kg was found to be 383%.
On to `CS(=O)(=O)N[C@@H]1Cn2c(cn(-c3noc4cccc(-c5c(F)cc(F)cc5F)c34)c2=O)C1(F)F` [Example 16, N-{(6R)-7,7-Difluoro-3-oxo-2-[4-(2,4,6-trifluorophenyl)-1,2-benzoxazol-3-yl]-2,5,6,7-tetrahydro-3H-pyrrolo[1,2-c]imidazol-6-yl}methanesulfonamide], for which the “OX2R agonist activity (3 uM, %)” value in test [1] is recorded as 107%. In addition, the response vs control in vivo at 1 mg/kg in test [2] is 546%.
On to `CCS(=O)(=O)N[C@@H]1CN2C(=O)N(c3noc4cccc(-c5c(F)cc(F)cc5F)c34)C[C@@H]2C1(F)F` [Example 24, N-{(6R,7aR)-7,7-Difluoro-3-oxo-2-[4-(2,4,6-trifluorophenyl)-1,2-benzoxazol-3-yl]hexahydro-1H-pyrrolo[1,2-c]imidazol-6-yl}ethanesulfonamide], for which, in test [1], the “OX2R agonist activity (3 uM, %)” value came out at 104%. Moreover, in test [2], the response vs control in vivo at 1 mg/kg amounted to 393%.
For the compound `CCS(=O)(=O)N[C@H]1C[C@H]2CN(c3noc4cc(Cl)cc(-c5c(F)cccc5F)c34)C(=O)N2C1` [Example 50, N-{(6S,7aS)-2-[6-Chloro-4-(2,6-difluorophenyl)-1,2-benzoxazol-3-yl]-3-oxohexahydro-1H-pyrrolo[1,2-c]imidazol-6-yl}ethanesulfonamide], in test [1], the “OX2R agonist activity (3 uM, %)” value is given as 103%. For the same compound, in test [2], the response vs control in vivo at 1 mg/kg was 176%.
With `CS(=O)(=O)N[C@@H]1CN2C(=O)N(c3noc4cccc(-c5c(F)cc(F)cc5F)c34)C[C@@H]2C1(F)F` [Example 71, N-{(6R,7aR)-7,7-Difluoro-3-oxo-2-[4-(2,4,6-trifluorophenyl)-1,2-benzoxazol-3-yl]hexahydro-1H-pyrrolo[1,2-c]imidazol-6-yl}methanesulfonamide], the “OX2R agonist activity (3 uM, %)” value in test [1] came to 97%. Besides, the response vs control in vivo at 1 mg/kg in test [2] came out at 703%.
On to `CS(=O)(=O)N[C@@H]1Cn2c(cn(-c3noc4ccc(F)c(-c5c(F)cc(F)cc5F)c34)c2=O)C1(F)F` [Example 77, N-{(6R)-7,7-Difluoro-2-[5-fluoro-4-(2,4,6-trifluorophenyl)-1,2-benzoxazol-3-yl]-3-oxo-2,5,6,7-tetrahydro-3H-pyrrolo[1,2-c]imidazol-6-yl}methanesulfonamide], for which, in test [1], the “OX2R agonist activity (3 uM, %)” value is 100%. Besides, the response vs control in vivo at 1 mg/kg in test [2] was 645%.
On to `CS(=O)(=O)N[C@@H]1Cn2c(cn(-c3noc4cc(F)c(F)c(-c5c(F)cccc5F)c34)c2=O)C1(F)F` [Example 142, N-{(6R)-2-[4-(2,6-difluorophenyl)-5,6-difluoro-1,2-benzoxazol-3-yl]-7,7-difluoro-3-oxo-2,5,6,7-tetrahydro-3H-pyrrolo[1,2-c]imidazol-6-yl}methanesulfonamide], for which, in test [1], the “OX2R agonist activity (3 uM, %)” value was 99%. Moreover, in test [2], the response vs control in vivo at 1 mg/kg was 690%.
`CCS(=O)(=O)N[C@@H]1CN2C(=O)N(c3noc4cccc(-c5ccccc5C)c34)CC[C@@H]2C1(F)F` [Example 325, N-{(4aR,6R)-5,5-difluoro-2-[4-(2-methylphenyl)-1,2-benzoxazol-3-yl]-1-oxooctahydropyrrolo[1,2-c]pyrimidin-6-yl}ethanesulfonamide]: the “OX2R agonist activity (3 uM, %)” value in test [1] is recorded as 101%.
For `CCS(=O)(=O)N[C@@H]1CN2C(=O)N(c3noc4cccc(-c5ccsc5)c34)CC[C@@H]2C1(F)F` [Example 326, N-{(4aR,6R)-5,5-difluoro-1-oxo-2-[4-(thiophen-3-yl)-1,2-benzoxazol-3-yl]octahydropyrrolo[1,2-c]pyrimidin-6-yl}ethanesulfonamide], in test [1], the “OX2R agonist activity (3 uM, %)” value is 99%.
For the compound `CCS(=O)(=O)N[C@@H]1CN2C(=O)N(c3noc4cccc(-c5ccccc5Cl)c34)CC[C@@H]2C1(F)F` [Example 327, N-{(4aR,6R)-2-[4-(2-chlorophenyl)-1,2-benzoxazol-3-yl]-5,5-difluoro-1-oxooctahydropyrrolo[1,2-c]pyrimidin-6-yl}ethanesulfonamide], the “OX2R agonist activity (3 uM, %)” value in test [1] was found to be 118%.
As for `CCS(=O)(=O)N[C@@H]1CN2C(=O)N(c3noc4cccc(-c5cccs5)c34)CC[C@@H]2C1(F)F` [Example 328, N-{(4aR,6R)-5,5-difluoro-1-oxo-2-[4-(thiophen-2-yl)-1,2-benzoxazol-3-yl]octahydropyrrolo[1,2-c]pyrimidin-6-yl}ethanesulfonamide], the “OX2R agonist activity (3 uM, %)” value in test [1] turned out to be 103%.
With `CCS(=O)(=O)N[C@@H]1CN2C(=O)N(c3noc4cccc(-c5ccc(F)cc5Cl)c34)CC[C@@H]2C1(F)F` [Example 329, N-{(4aR,6R)-2-[4-(2-chloro-4-fluorophenyl)-1,2-benzoxazol-3-yl]-5,5-difluoro-1-oxooctahydropyrrolo[1,2-c]pyrimidin-6-yl}ethanesulfonamide], the “OX2R agonist activity (3 uM, %)” value in test [1] was found to be 101%.
Regarding `CCS(=O)(=O)N[C@@H]1CN2C(=O)N(c3noc4cccc(-c5nccs5)c34)CC[C@@H]2C1(F)F` [Example 330, N-{(4aR,6R)-5,5-difluoro-1-oxo-2-[4-(1,3-thiazol-2-yl)-1,2-benzoxazol-3-yl]octahydropyrrolo[1,2-c]pyrimidin-6-yl}ethanesulfonamide], the “OX2R agonist activity (3 uM, %)” value in test [1] stood at 109%.
Still for that read-out and setting: next, `CCS(=O)(=O)N[C@@H]1CN2C(=O)N(c3noc4cccc(C5CCC5)c34)CC[C@@H]2C1(F)F` [Example 331, N-[(4aR,6R)-2-(4-cyclobutyl-1,2-benzoxazol-3-yl)-5,5-difluoro-1-oxooctahydropyrrolo[1,2-c]pyrimidin-6-yl]ethanesulfonamide]: 45%; `CCS(=O)(=O)N[C@@H]1CN2C(=O)N(c3noc4cccc(-c5sccc5C)c34)CC[C@@H]2C1(F)F` [Example 332, N-{(4aR,6R)-5,5-difluoro-2-[4-(3-methylthiophen-2-yl)-1,2-benzoxazol-3-yl]-1-oxooctahydropyrrolo[1,2-c]pyrimidin-6-yl}ethanesulfonamide]: 106%; `CCS(=O)(=O)N[C@@H]1CN2C(=O)N(c3noc4cccc(N5CCCCC5)c34)CC[C@@H]2C1(F)F` [Example 333, N-{(4aR,6R)-5,5-difluoro-1-oxo-2-[4-(piperidin-1-yl)-1,2-benzoxazol-3-yl]octahydropyrrolo[1,2-c]pyrimidin-6-yl}ethanesulfonamide]: 68%.
`CCS(=O)(=O)N[C@@H]1CN2C(=O)N(c3noc4cccc(-c5ccccc5F)c34)CC[C@@H]2C1(F)F` [Example 334, N-{(4aR,6R)-5,5-difluoro-2-[4-(2-fluorophenyl)-1,2-benzoxazol-3-yl]-1-oxooctahydropyrrolo[1,2-c]pyrimidin-6-yl}ethanesulfonamide]: the “OX2R agonist activity (3 uM, %)” value in test [1] is on record as 111%.
Turning to `CCS(=O)(=O)N[C@@H]1CN2C(=O)N(c3noc4cccc(-c5ncc(F)cc5C)c34)CC[C@@H]2C1(F)F` [Example 335, N-{(4aR,6R)-5,5-difluoro-2-[4-(5-fluoro-3-methylpyridin-2-yl)-1,2-benzoxazol-3-yl]-1-oxooctahydropyrrolo[1,2-c]pyrimidin-6-yl}ethanesulfonamide], the “OX2R agonist activity (3 uM, %)” value in test [1] is 101%.
